Assay results published in US10112899B2 (ViiV HEALTHCARE UK LIMITED, priority 2014, dated 2018).

What follows are compounds tested on HIV in the HTLV-1 transformed cell line MT-4 (assay: organism not typed). Conditions: MT4, 96 h, MT-4 cells; luciferase/cell titer glo readout after 96 hours; 10 point dose response.
Format: cell-based

Row | Compound | IC50
1 | Cc1c2c(c(C)c([C@H](OC(C)(C)C)C(=O)O)c1-c1ccc3c(c1)CCCO3)CN(C(=O)N1CCCCC1)C2 [Example 317, (S)-2-(tert-butoxy)-2-(6-(chroman-6-yl)-4,7-dimethyl-2-(piperidine-1-carbonyl)isoindolin-5-yl)acetic acid] | 3 nM
2 | Cc1c(-c2c(C)c3c(c(C)c2[C@H](OC(C)(C)C)C(=O)O)CN(C(=O)N2CCCCC2)C3)cc(F)c2c1NCCO2 [Example 318, (2S)-2-(tert-butoxy)-2-(6-(8-fluoro-5-methyl-3,4-dihydro-2H-benzo[b][1,4]oxazin-6-yl)-4,7-dimethyl-2-(piperidine-1-carbonyl)isoindolin-5-yl)acetic acid] | 5 nM
3 | Cc1c(-c2c(C)c3c(c(C)c2[C@H](OC(C)(C)C)C(=O)O)CN(C(=O)N2CCCCC2)C3)ccc2c1NCCO2 [Example 319, (2S)-2-(tert-butoxy)-2-(4,7-dimethyl-6-(5-methyl-3,4-dihydro-2H-benzo[b][1,4]oxazin-6-yl)-2-(piperidine-1-carbonyl)isoindolin-5-yl)acetic acid] | 4 nM
4 | Cc1c(-c2c(C)c3c(c(C)c2[C@H](OC(C)(C)C)C(=O)O)CN(C(=O)N2CCC(F)(F)C2)C3)ccc2c1CCCO2 [Example 320, (2S)-2-(tert-butoxy)-2-(2-(3,3-difluoropyrrolidine-1-carbonyl)-4,7-dimethyl-6-(5-methylchroman-6-yl)isoindolin-5-yl)acetic acid] | 3 nM
5 | Cc1c(-c2c(C)c3c(c(C)c2[C@H](OC(C)(C)C)C(=O)O)CN(C(=O)N2CCCCC2)C3)ccc2c1CCCO2 [Example 321, (2S)-2-(tert-butoxy)-2-(4,7-dimethyl-6-(5-methylchroman-6-yl)-2-(piperidine-1-carbonyl)isoindolin-5-yl)acetic acid] | 2 nM
6 | Cc1cc(Cl)ccc1-c1c(C)c2c(c(C)c1C(OC(C)(C)C)C(=O)O)CN(C(=O)N1CCC(F)(F)C1)C2 (stereo not shown) [Example 323, 2-(tert-butoxy)-2-(6-(4-chloro-2-methylphenyl)-2-(3,3-difluoropyrrolidine-1-carbonyl)-4,7-dimethylisoindolin-5-yl)acetic acid] | 13 nM
7 | Cc1cc(Cl)ccc1-c1c(C)c2c(c(C)c1[C@H](OC(C)(C)C)C(=O)O)CN(C(=O)C1CCCCC1)C2 [Example 324, (2S)-2-(tert-butoxy)-2-(6-(4-chloro-2-methylphenyl)-2-(cyclohexanecarbonyl)-4,7-dimethylisoindolin-5-yl)acetic acid] | 13 nM
8 | Cc1cc(Cl)ccc1-c1c(C)c2c(c(C)c1[C@H](OC(C)(C)C)C(=O)O)CN(C(=O)CC(C)(C)C)C2 [Example 325, (2S)-2-(tert-butoxy)-2-(6-(4-chloro-2-methylphenyl)-2-(3,3-dimethylbutanoyl)-4,7-dimethylisoindolin-5-yl)acetic acid] | 13 nM

Same assay, conditions: MT-4 cells; luciferase/cell titer glo readout after 96 hours; 10 point dose response

Row | Compound | IC50
9 | Cc1ccc(-c2c(C)c3c(c(C)c2[C@H](OC(C)(C)C)C(=O)O)CN(C(=O)N2CCCCC2)C3)c(Cl)c1 [Example 316, (2S)-2-(tert-butoxy)-2-(6-(2-chloro-4-methylphenyl)-4,7-dimethyl-2-(piperidine-1-carbonyl)isoindolin-5-yl)acetic acid] | 41 nM
10 | Cc1ccc(-c2c(C)c3c(c(C)c2[C@H](OC(C)(C)C)C(=O)O)CN(C(=O)N2CCCCC2)C3)c(Cl)c1 [Example 322, (2S)-2-(tert-butoxy)-2-(6-(2-chloro-4-methylphenyl)-4,7-dimethyl-2-(piperidine-1-carbonyl)isoindolin-5-yl)acetic acid] | 5 nM
